Results from PubChem BioAssay AID624497 (The Scripps Research Institute Molecular Screening Center, 2012).
The source made the active and inactive calls. No rule for the calls is given here.

Biological target: Methionine sulfoxide reductase A (Bos taurus)
Assay: bovine MsrA activator potency, dose response, biochemical, absorbance, late stage (AID 624497)
Settings: purified MsrA enzyme activity, absorbance read-out

Row | SMILES | EC50
1 | C[n+]1c2ccccc2nc2ccc(NCCO)cc21 | 4.93 µM
2 | COc1cc(NC(=O)COC(=O)c2ccc([N+](=O)[O-])s2)cc(OC)c1OC | > 104 µM (inactive)
3 | O=C(COC(=O)c1ccc([N+](=O)[O-])s1)Nc1cccc(S(=O)(=O)NC2=NCCCCC2)c1 | > 104 µM (inactive)
4 | O=[N+]([O-])c1ccc(C=Nc2cccc3ccccc23)s1 | > 104 µM (inactive)
5 | OCC[n+]1c2ccccc2nc2ccc(N3CCOCC3)cc21 | inactive
6 | c1ccc2[nH]c3cc4ncnc4cc3nc2c1 | inactive
7 | O=C(COC(=O)c1ccc([N+](=O)[O-])s1)Nc1ccccc1 | > 104 µM (inactive)
8 | CC(C)(C)c1ccc(NC(=O)COC(=O)c2ccc([N+](=O)[O-])s2)cc1 | > 104 µM (inactive)
9 | Cc1oc2c(c1C(=O)c1ccccc1)C(=O)C(=O)c1ccccc1-2 | > 104 µM (inactive)
10 | COc1ccc(S(=O)(=O)N2CCOCC2)cc1NC(=O)COC(=O)c1ccc([N+](=O)[O-])s1 | inactive
11 | O=C1C(=O)c2cccnc2-c2ncccc21 | 4.46 µM
12 | Nc1nc(=S)ss1 | inactive
13 | CS(=O)(=O)c1ccc(N)c(SSc2cc(S(C)(=O)=O)ccc2N)c1 | > 104 µM (inactive)
14 | Cc1ccc2[nH]c3c(c2c1)CN(C(=O)CN1CCN(c2ccccn2)CC1)CC3 | > 104 µM (inactive)
15 | O=C(OCC(=O)c1c[nH]c2ccccc12)c1ccc([N+](=O)[O-])s1 | > 104 µM (inactive)
16 | O=C1c2ccccc2-c2nnc(-c3ccccc3)cc21 | > 104 µM (inactive)

Row | SMILES | EC50
17 | O=C(OCC(=O)N1CCN(c2ccccc2)CC1)c1ccc([N+](=O)[O-])s1 | inactive
18 | NC1=C(Br)C(=O)c2ccccc2C1=O | > 104 µM (inactive)
19 | COc1ccccc1NC(=O)COC(=O)c1ccc([N+](=O)[O-])s1 | inactive
20 | O=C(COC(=O)c1ccc([N+](=O)[O-])s1)c1ccc[nH]1 | inactive
21 | COCCCn1c(=O)c2ccccc2n2c(=S)[nH]nc12 | > 104 µM (inactive)
22 | O=C(COC(=O)c1ccc([N+](=O)[O-])s1)NNC(=O)c1ccccc1 | > 104 µM (inactive)
23 | O=C1C(Cl)=C(Nc2ccc(O)cc2)C(=O)c2ccccc21 | > 104 µM (inactive)
24 | O=C(c1ccccc1)c1coc2c1C(=O)c1ccccc1C2=O | inactive
25 | CNc1ccc2nc3ccccc3[n+](C)c2c1 | 2.05 µM
26 | O=C1CN(C(=O)COC(=O)c2ccc([N+](=O)[O-])s2)c2ccccc2N1 | inactive
27 | O=C(COC(=O)c1ccc([N+](=O)[O-])s1)NCCc1ccccc1 | inactive
28 | O=C(OCC(=O)N(c1ccccc1)c1ccccc1)c1ccc([N+](=O)[O-])s1 | inactive
29 | O=C1C=C(Nc2ccccc2O)c2ccccc2C1=O | > 104 µM (inactive)
30 | CC1CCCC(NC(=O)COC(=O)c2ccc([N+](=O)[O-])s2)C1C (configuration not stated) | inactive
31 | O=C(COC(=O)c1ccc([N+](=O)[O-])s1)NCc1ccc(F)cc1 | inactive
32 | O=C(OCc1nnc(-c2ccccc2)o1)c1ccc([N+](=O)[O-])s1 | inactive
